Tests used:
[1] = tested on: Escherichia coli; assay: Agar dilution test, minimum inhibitory concentration; assay type: cell-based; conditions: for MINIMUM INHIBITORY CONCENTRATION: Trypticase Soy Agar II plates; for inhibitory against gram-negative bacteria: text summary of Table II, lipid condition not stated
Experimental: (§1) Standard agar dilution tests in order to establish the minimum inhibitory concentration (% v/v) for C6 acyl lactylate, C8 acyl lactylate and C12 acyl lactylate were performed both in the presence and the absence of a lipid on the following micro-organisms: • 1. Propionibacterium acnes • 2. Staphylococcus aureus • 3. Escherichia coli • 4. Candida albicans
(§2) Control experiments were performed employing benzoyl peroxide and erthyromycin.
(§3) The present tests were performed using Trypticase Soy Agar II incorporation plates with and without 10% intralipid, supplied by Kabi Pharmacia Inc. In each case the lactylate being tested was used at a starting concentration of 10,000 ug/ml.

[2] = tested on: Candida albicans; assay: as above; assay type: cell-based; conditions: for MINIMUM INHIBITORY CONCENTRATION: Trypticase Soy Agar II plates
Experimental: as §1, §2, §3

[3] = tested on: Propionibacterium acnes; assay: as above; assay type: cell-based; conditions: Trypticase Soy Agar II plates
Experimental: as §1, §2, §3

[4] = tested on: Staphylococcus aureus; assay: as above; assay type: cell-based; conditions: for MINIMUM INHIBITORY CONCENTRATION: Trypticase Soy Agar II plates
Experimental: as §1, §2, §3

[5] = tested on: rate of hair loss; assay: Reduction of the rate of hair loss, panel of human volunteers (brushing and hair count); assay type: in vivo; conditions: human panellists, about 3 ml applied to the scalp daily at night, compared with placebo composition B; Student t-test
Experimental: The effect of selected acyl lactylates, as herein defined, on reducing the rate of hair loss was assessed using a panel of human volunteers.
Each panellist was requested to brush his or her hair immediately on getting out of bed in the morning before other grooming took place. The hair brushing consisted of ten vigorous strokes over the entire head from front to back, ten strokes from back to front and then ten strokes from each side to the opposite side. Brushing was carried out over a towel or other light cloth to collect any hairs that fell. In addition, all the hairs on the brush were removed with forceps. The total number of hair collected each day was counted. Panellists were requested to continue with their routine hair shampooing and grooming techniques as usual, the only change to this routine being the application of products in accordance with the invention or corresponding control or placebo products.
During the first month, each panellist carried out only the standard brushing, collecting and counting of hairs lost to provide a basis for comparison later. For the second and third months, the scalp was treated by adding the test or placebo compositions in addition to the standard brushing technique as previously described. […]
The results were analysed by the standard Student t-test.

[6] = text summary of Table II, lipid condition not stated

Row | Compound | MINIMUM INHIBITORY CONCENTRATION ([1]; Lipid (10% intralipid)) | MINIMUM INHIBITORY CONCENTRATION ([1]; No Lipid) | MINIMUM INHIBITORY CONCENTRATION ([2]; Lipid (10% intralipid)) | MINIMUM INHIBITORY CONCENTRATION ([2]; No Lipid) | MINIMUM INHIBITORY CONCENTRATION ([3]; Lipid (10% intralipid)) | MINIMUM INHIBITORY CONCENTRATION ([3]; No Lipid) | MINIMUM INHIBITORY CONCENTRATION ([4]; Lipid (10% intralipid)) | MINIMUM INHIBITORY CONCENTRATION ([4]; No Lipid) | inhibitory against gram-negative bacteria [1] [% v/v] | reduction in the rate of loss of hair [5] | inhibitory effect against yeast [2, 6] [% v/v] | inhibitory to gram-positive bacteria [4, 6] [% v/v]
1 | CC[C@H]1OC(=O)[C@H](C)[C@@H](O[C@H]2C[C@@](C)(OC)[C@@H](O)[C@H](C)O2)[C@H](C)[C@@H](O[C@@H]2O[C@H](C)C[C@H](N(C)C)[C@H]2O)[C@](C)(O)C[C@@H](C)C(=O)[C@H](C)[C@@H](O)[C@]1(C)O [Erthyromycin, erthyromycin, reference compound] | 0.01 % V/V | 0.01 % V/V | 0.01 % V/V | 0.01 % V/V | <1.9 x 10^-5 % V/V | <1.9 x 10^-5 % V/V | 3.1 x 10^-4 % V/V | 3.1 x 10^-4 % V/V |  |  |  | 
2 | C8 acyl lactylate [C8 Lactylate] | 1.0 % V/V | 1.0 % V/V | 1.0 % V/V | 1.0 % V/V | 0.5 % V/V | 0.25 % V/V | 0.5 % V/V | 0.5 % V/V | 1 |  |  | 
3 | O=C(OOC(=O)c1ccccc1)c1ccccc1 [Benzoyl Peroxide, benzoyl peroxide, reference compound] | 0.12 % V/V | 0.25 % V/V | 0.12 % V/V | 0.25 % V/V | 0.06 % V/V | 0.25 % V/V | 0.12 % V/V | 0.25 % V/V |  |  |  | 
4 | C6 acyl lactylate [C6 Lactylate] | " " | " " | " " | " " | 0.5 % V/V | pH Effect | pH Effect | " " |  |  |  | 
5 | C12 acyl lactylate [C12 Lactylate] | >1.0 % V/V | >1.0 % V/V | >1.0 % V/V | >1.0 % V/V | 0.25 % V/V | 0.00039 % V/V | 0.5 % V/V | 0.06 % V/V | > 1 | significantly reduced | > 1 | 0.0625
